Format in all cases: cell-based
Test [1] has as its target T1, BRD4 (Homo sapiens, UniProt O60885).
T1 construct: degradation of endogenous BRD4 in HEK293T cells; endogenous in cells; host or cells: HEK293T (A10, A16); HEK293 DCAF16+/+ and DCAF16-/- clones (A11)
In words: Western blot of endogenous BRD4 in HEK293T cells. To be noted: HEK293T, 24 hours. The protocol: (§1) Cells were collected and lysed in 1% NP-40 lysis buffer (25 mM Tris-HCl pH 7.4, 150 mM NaCl, 10% glycerol, 1% Nonidet P-40) with complete protease inhibitor cocktail (Roche). Cells were vortexed and sonicated for 5 pulses (40%, 4). The supernatant was collected after centrifugation at 16,000 g for 10 min at 4° C. Protein concentration was determined by DC assay (Bio-Rad). Protein lysate was heated at 95° C. for 5 min in 1× Laemmli sample buffer. Proteins were resolved by 12% or 14% Novex Tris-Glycine Mini Gels (Invitrogen) and transferred to polyvinylidene fluoride (PVDF) membrane (0.2 Bio-Rad). The membrane was blocked with 5% BSA in TBST buffer (0.1% Tween 20, 20 mM Tris-HCl 7.6, 150 mM NaCl) at room temperature for 1 h. The antibody was diluted with fresh 5% BSA in TBST buffer (1:10000 dilution for FLAG, HA and β-Actin, 1:1000 dilution for others) and incubated with membrane (1 h room temperature for FLAG, HA and β-Actin, overnight 4° C. for others). Membrane was washed three times with TBST buffer and incubated with secondary antibody (1:5000 dilution in 5% BSA in TBST) at room temperature for 1 h. Membrane was washed three times with TBST buffer. The chemiluminescence signal in membrane was recorded after developing in ECL or ECL plus western blotting detection reagent using CL-XPosure film (Thermo Scientific). Relative band intensities were quantified using ImageJ.
A general note: In western blotting, separated proteins are transferred to a membrane and probed.

Test [2] deals with T1, BRD4. The test is described as follows: Western blot of BRD4 in DCAF16−/− HEK293 cells. To be noted: 40 μM KB02-JQ1, 24 hours. The protocol:
(§2) DCAF16 CRISPR knockout HEK293 cell pools were generated by Synthego using nucleofection of Cas9-gRNA ribonucleoprotein (RNP) complex. Editing efficiency 48 h post nucleofection of cell pool was 88%. HEK293 editing cell pools were subjected to single cell sorting in The Flow Cytometry Core Facility at Scripps Research. Individual cell clone was grown in 96-well plate until the cells were confluent. To confirm the editing in DCAF16 gene, genomic DNAs from each clone were extracted using PureLink Genomic DNA Mini Kit (Invitrogen). DCAF16 gene was amplified by PCR and confirmed by DNA sequencing. Indel analysis was performed using ICE analysis from Synthego.
Cells were collected and lysed in 1% NP-40 lysis buffer (25 mM Tris-HCl pH 7.4, 150 mM NaCl, 10% glycerol, 1% Nonidet P-40) with complete protease inhibitor cocktail (Roche). Cells were vortexed and sonicated for 5 pulses (40%, 4). The supernatant was collected after centrifugation at 16,000 g for 10 min at 4° C. Protein concentration was determined by DC assay (Bio-Rad). Protein lysate was heated at 95° C. for 5 min in 1× Laemmli sample buffer. […] The chemiluminescence signal in membrane was recorded after developing in ECL or ECL plus western blotting detection reagent using CL-XPosure film (Thermo Scientific). Relative band intensities were quantified using ImageJ.

Another test has as its target T2, FLAG-FKBP12 (Homo sapiens, UniProt P62942).
T2 construct: expressed in transfected cells; host or cells: HEK293T (lentiviral transduction, puromycin selection)
In words: Polyubiquitination of immunoprecipitated cytosolic FLAG-FKBP12 in HEK293T cells. To be noted: KB02-SLF 5 μM, MG132 10 μM, 2 hours. The protocol:
as §1, with “ImageJ. […]” for “ImageJ.”

The target in another test is FLAG-FKBP12_NLS (Homo sapiens, UniProt P62942). In words: Western blot of FLAG-FKBP12_NLS in DCAF16+/+ and DCAF16−/− HEK293 clones. Further details: expressed in transfected cells; host or cells: HEK293 DCAF16+/+ and DCAF16-/- clones (lentiviral pCDH-CMV-MCS-EF1-Puro). The protocol: as §2
Chain of FLAG-FKBP12_NLS (P62942 with tags, fused parts or gaps): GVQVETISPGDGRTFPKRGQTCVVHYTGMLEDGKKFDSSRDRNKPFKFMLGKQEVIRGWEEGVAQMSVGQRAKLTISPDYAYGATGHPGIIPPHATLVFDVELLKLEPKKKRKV
To confirm DCAF16 knockout at the protein level, lentivirus containing FLAG-FKBP12_NLS was used to infect three wild type DCAF16 clones (clone 6, 17, 18) and three DCAF16 knockout clones (clone 3, 4, 22). Clone 6 stably expressing FLAG-FKBP12_NLS was grown in heavy SILAC DMEM medium for 5 generations. The other clones stably expressing FLAG-FKBP12_NLS were grown in light SILAC DMEM medium for 5 generations. All 6 clones were treated with 5 μM KB02-SLF and 10 μM MG132 for 2 h. Cells were collected and analyzed for FLAG-FKBP12_NLS associating proteins using the same method described below. Proteins from clone 6 (heavy labeled) were combined with the other clones (light labeled) separately and identified by LC-MS/MS.
as §1

The next test has as its target T3, HA-DCAF16 (Homo sapiens, UniProt Q9NXF7).
T3 construct: expressed in transfected cells; host or cells: HEK293T (A9); DCAF16-/- HEK293 clones (A20); pRK5 vector
In words: Western blot of HA-DCAF16 in DCAF16−/− cells. To be noted: KB02-SLF 1.5 μM, 8 hours. The protocol:
as §1

The structures appear in SMILES notation.

T2 sequence (P62942 whole entry): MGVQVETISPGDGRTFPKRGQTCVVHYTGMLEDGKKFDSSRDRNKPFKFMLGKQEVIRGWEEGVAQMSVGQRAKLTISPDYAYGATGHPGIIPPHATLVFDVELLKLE
T3 sequence (Q9NXF7 whole entry): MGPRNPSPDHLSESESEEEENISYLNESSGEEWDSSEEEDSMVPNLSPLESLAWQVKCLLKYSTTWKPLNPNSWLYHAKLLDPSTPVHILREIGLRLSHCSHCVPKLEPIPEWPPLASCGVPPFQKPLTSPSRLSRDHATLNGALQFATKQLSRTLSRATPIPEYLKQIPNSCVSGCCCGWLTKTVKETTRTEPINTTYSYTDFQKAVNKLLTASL

Take `Cc1sc2c(c1C)C(c1ccc(Cl)cc1)=N[C@@H](CC(=O)NCCOCCOCCNC(=O)COc1ccc3c(c1)CCCN3C(=O)CCl)c1nnc(C)n1-2` [KB02-JQ1, (S)-2-((1-(2-chloroacetyl)-1,2,3,4-tetrahydroquinolin-6-yl)oxy)-N-(2-(2-(2-(2-(4-(4-chlorophenyl)-2,3,9-trimethyl-6H-thieno[3,2-f][1,2,4]triazolo[4,3-a][1,4]diazepin-6-yl)acetamido)ethoxy)ethoxy)ethyl)acetamide]: on BRD4 [1], the “concentration for degradation of BRD4” value lay in the range of 20 to 40 µM and the “degradation of BRD4” value is reported as “promoted, in a concentration-dependent manner, the degradation of BRD4”. In addition, the “BRD4 degradation in DCAF16−/− cells” value on BRD4 [2] is listed as “substantially blocked”.
Turning to `CCC(C)(C)C(=O)C(=O)N1CCCC[C@H]1C(=O)O[C@H](CCc1ccc(OC)c(OC)c1)c1cccc(NC(=O)CCOCCOCCNC(=O)COc2ccc3c(c2)CCCN3C(=O)CCl)c1` [KB02-SLF, (R)-1-(3-(3-(2-(2-(2-((1-(2-chloroacetyl)-1,2,3,4-tetrahydroquinolin-6-yl)oxy)acetamido)ethoxy)ethoxy)propanamido)phenyl)-3-(3,4-dimethoxyphenyl)propyl (S)-1-(3,3-dimethyl-2-oxopentanoyl)piperidine-2-carboxylate], on FLAG-FKBP12, the “polyubiquitination of cytosolic FKBP12” value is reported as “not cytosolic FKBP12”. The “degradation of FKBP12_NLS in DCAF16−/− clones” value on FLAG-FKBP12_NLS (HEK293 clones 3, 4, 22, 0.2-5 μM, 8 h) is recorded as “not in any of the three DCAF16−/− clones”. The “degradation of FKBP12_NLS in DCAF16+/+ clones” value at FLAG-FKBP12_NLS (HEK293 clones 6, 17, 18, 0.2-5 μM, 8 h) was “supported the degradation of FKBP12_NLS in all three DCAF16+/+ clones”. Further, on FLAG-FKBP12_NLS (KB02-SLF 1.5 μM, 8 hours), the “FKBP12_NLS degradation in DCAF16−/− cells expressing C58S-, C173S- or C178S-DCAF16” value is reported as “supported KB02-SLF-induced degradation of FKBP12_NLS” and the “FKBP12_NLS degradation in DCAF16−/− cells with recombinant HA-DCAF16” value is given as “restored KB02-SLF-induced FKBP12_NLS degradation”. In addition, the “degradation of HA-DCAF16” value on HA-DCAF16 is “degradation of HA-DCAF16 was not observed”.

These data come from US11691984B2, “Compounds and methods for DCAF-mediated protein degradation” (The Scripps Research Institute, priority 2018, dated 2023).
